Our source for the EC50 values is patent publication US20230092163A1, “COMPOUNDS AND COMPOSITIONS FOR TREATING CONDITIONS ASSOCIATED WITH STING ACTIVITY” (IFM Due, Inc., priority 2019, published 2023).

Molecules are shown by their SMILES.

STING, sequence (Q86WV6 whole entry R71H/G230A/H232R/R293Q): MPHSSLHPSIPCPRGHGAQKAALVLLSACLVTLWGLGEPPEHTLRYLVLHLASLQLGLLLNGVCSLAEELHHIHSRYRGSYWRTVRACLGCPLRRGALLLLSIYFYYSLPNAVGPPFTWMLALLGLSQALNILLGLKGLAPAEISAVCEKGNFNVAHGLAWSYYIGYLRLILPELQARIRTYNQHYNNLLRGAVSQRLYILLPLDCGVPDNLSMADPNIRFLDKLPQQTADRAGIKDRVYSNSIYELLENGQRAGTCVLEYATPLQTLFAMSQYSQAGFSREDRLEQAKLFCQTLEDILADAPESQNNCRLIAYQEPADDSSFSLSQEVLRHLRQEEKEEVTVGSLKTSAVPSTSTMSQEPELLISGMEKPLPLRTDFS

For one assay, the target named is STING (Homo sapiens, UniProt Q86WV6, G230A/H232R/R293Q/R71H). Description: STING reporter assay: THP1-Dual KO-IFNAR2 cells stimulated with 2′3′cGAMP, luciferase reporter activity. The conditions noted are these: 15 μM 2′3′cGAMP, 24h, class symbols. The assay is classed as cell-based. The gist of the method:
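THP1-Dual KO-IFNAR2 cells (2×10E6 cells/mL) treated with compounds at 0.0017-100 μM, then stimulated with 2′3′cGAMP (15 μM final) delivered by Lipofectamine 2000; 24 h at 37° C. Supernatant luciferase read by QUANTI-Luc Plus luminescence; EC50 from dose-response.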
For orientation: In a reporter assay the amount or activity of a reporter protein is the signal.
The term EC50 denotes the midpoint of the concentration-response curve. `O=C(Nc1cccc(OC(F)F)c1)Nc1ccc2[nH]ccc2c1` [Compound 343] had an EC50 of 5 to 100 µM. As to `O=C(Nc1ccc(C(F)(F)F)cc1)Nc1ccc2[nH]cc(-c3cn[nH]c3)c2c1` [Compound 345], the EC50 was 5 to 100 µM. The compound `N#Cc1cc2cc(NC(=O)Nc3ccc(C(F)(F)F)cc3)ccc2[nH]1` [Compound 370] returned an EC50 of 5 to 100 µM. `O=C(Nc1ccc(C(F)(F)F)cc1)Nc1ccc2[nH]cc(NC(=O)Nc3ccc(C(F)(F)F)cc3)c2c1` [Compound 371] had an EC50 of 0.2 to 1 µM. As to `O=C(Nc1cccc(C(F)(F)F)c1)Nc1ccc2[nH]ccc2c1` [Compound 374], the concentration giving a half-maximal response (EC50) lay within 5 to 100 µM.

In turn, `CN(C(=O)Nc1ccc(C(F)(F)F)cc1)c1ccc2[nH]ccc2c1` [Compound 376] gave a half-maximal effective concentration (EC50) of 5 to 100 µM. Compound `CCCCc1ccc(NC(=O)Nc2ccc3[nH]ccc3c2)cc1` [Compound 378] yielded an EC50 of 1 to 5 µM. As to `FC(F)(F)c1ccc2ccc(Nc3ccc4cc[nH]c4c3)nc2c1` [Compound 381], the EC50 was in the range of 0.2 to 1 µM. As to `N#Cc1cc(Nc2ccc3ccc(C(F)(F)F)cc3n2)cc2[nH]ccc12` [Compound 384], the concentration giving a half-maximal response (EC50) lay within 1 to 5 µM. `CCc1ccc2ccc(Nc3ccc4cc[nH]c4c3)nc2c1` [Compound 385]: the half-maximal effective concentration (EC50) is 1 to 5 µM. `c1cc2ccc(Nc3ccc4ccc(C5CCC5)cc4n3)cc2[nH]1` [Compound 386] showed a concentration for a half-maximal effect (EC50) of 1 to 5 µM. Compound `Cc1cc(Nc2ccc3ccc(Cl)cc3n2)cc2[nH]ccc12` [Compound 387] yielded an EC50 of 1 to 5 µM.

Compound `FC(F)(F)c1ccc2cnc(Nc3ccc4cc[nH]c4c3)cc2c1` [Compound 388] displayed an EC50 of 1 to 5 µM.

With `c1cc2ccc(Nc3ccc4ccc(C5CCCCC5)cc4n3)cc2[nH]1` [Compound 389, 7-cyclohexyl-N-(1H-indol-6-yl)quinolin-2-amine], the EC50 was 1 to 5 µM. `COc1nc(Nc2ccc3cc[nH]c3c2)ccc1F` [Compound 391, N-(5-fluoro-6-methoxypyridin-2-yl)-1H-indol-6-amine] returned a concentration for a half-maximal effect (EC50) of 5 to 100 µM. For the compound `FC(F)(F)COc1cccc(Nc2ccc3cc[nH]c3c2)n1` [Compound 396, N-(6-(2,2,2-trifluoroethoxy)pyridin-2-yl)-1H-indol-6-amine], the EC50 lay in the range of 5 to 100 µM. Compound `c1ccc(-c2ccnc(Nc3ccc4cc[nH]c4c3)c2)cc1` [Compound 401, N-(4-phenylpyridin-2-yl)-1H-indol-6-amine] displayed a concentration giving a half-maximal response (EC50) of 1 to 5 µM. Still for that read-out and setting: as for `CC(C)(C)c1ccnc(Nc2ccc3cc[nH]c3c2)c1` [Compound 402, N-(4-(tert-butyl)pyridin-2-yl)-1H-indol-6-amine], the figure is 5 to 100 µM; as for `FC(F)(F)Oc1ccc(Nc2ccc3cc[nH]c3c2)nc1` [Compound 403, N-(5-(trifluoromethoxy)pyridin-2-yl)-1H-indol-6-amine], 5 to 100 µM; as for `FC(F)(F)c1nc(Nc2ccc3cc[nH]c3c2)ccc1Cl` [Compound 405, N-(5-chloro-6-(trifluoromethyl)pyridin-2-yl)-1H-indol-6-amine], 0.2 to 1 µM. In turn, `CC(C)c1cccc(Nc2ccc3cc[nH]c3c2)n1` [Compound 406, N-(6-isopropylpyridin-2-yl)-1H-indol-6-amine] showed an EC50 of 5 to 100 µM.

The same assay, now with this note: 15 μM 2′3′cGAMP, 24h, numeric bounds.
As to `CCCCCNC(=O)Nc1ccc2[nH]ccc2c1` [Compound 328], the concentration for a half-maximal effect (EC50) is over 30 µM.

`CC(C)CCNC(=O)Nc1ccc2[nH]ccc2c1` [Compound 329]: the EC50 is over 30 µM. With `O=C(NCCC1CC1)Nc1ccc2[nH]ccc2c1` [Compound 330], the EC50 was over 30 µM. On the same count and under the same terms, with `O=C(NCC1CCC1)Nc1ccc2[nH]ccc2c1` [Compound 331] the figure was over 30 µM; with `CC(C)(C)n1cc(NC(=O)Nc2ccc3[nH]ccc3c2)cn1` [Compound 332], over 30 µM; with `O=C(NCc1cnccn1)Nc1ccc2[nH]ccc2c1` [Compound 333], over 30 µM. For `O=C(Nc1ccc2[nH]ccc2c1)Nc1ccon1` [Compound 334], the EC50 was over 30 µM. Compound `Cc1cc(C)nc(NC(=O)Nc2ccc3[nH]ccc3c2)c1` [Compound 335] displayed an EC50 of over 30 µM. Same read-out and setting: as for `O=C(NCc1ccc(F)c(F)c1)Nc1ccc2[nH]ccc2c1` [Compound 336], the figure is over 30 µM; as for `Cc1ccc(CNC(=O)Nc2ccc3[nH]ccc3c2)cc1C` [Compound 337], over 30 µM; as for `Cc1ccccc1CNC(=O)Nc1ccc2[nH]ccc2c1` [Compound 338], over 30 µM. Take `Cc1ccc(CNC(=O)Nc2ccc3[nH]ccc3c2)cc1` [Compound 339]: the EC50 was over 30 µM. As to `Cc1cccc(CNC(=O)Nc2ccc3[nH]ccc3c2)c1` [Compound 340], the EC50 is over 30 µM. For `O=C(Nc1ccc(Cl)c(F)c1)Nc1ccc2[nH]ccc2c1` [Compound 341], the EC50 was over 30 µM. The compound `O=C(Nc1ccc(F)c(F)c1)Nc1ccc2[nH]ccc2c1` [Compound 342] yielded an EC50 of over 30 µM. Take `O=C(Nc1cccc(S(F)(F)(F)(F)F)c1)Nc1ccc2[nH]ccc2c1` [Compound 346]: the EC50 was over 30 µM.

The compound `CC(C)c1ccc(NC(=O)Nc2ccc3[nH]ccc3c2)cc1` [Compound 347] had an EC50 of over 30 µM. Still for that read-out and setting: with `CCCCCCCCCCCCCCCCNC(=O)Nc1ccc2[nH]ccc2c1` [Compound 348] the figure was over 30 µM. `O=C(NCCSCc1c(Cl)cccc1Cl)Nc1ccc2[nH]ccc2c1` [Compound 349] had an EC50 of over 30 µM. Take `O=C(NCc1csc(-c2ccc(Cl)cc2)n1)Nc1ccc2[nH]ccc2c1` [Compound 350]: the EC50 is over 30 µM. In turn, `CCCCCCCCCCCCCCNC(=O)Nc1ccc2[nH]ccc2c1` [Compound 351] yielded a 50% effective concentration (EC50) of over 30 µM.

For `CCCCCCCCc1ccc(NC(=O)Nc2ccc3[nH]ccc3c2)cc1` [Compound 352], the EC50 is over 30 µM. In the case of `O=C(NCCc1ccc(Br)cc1)Nc1ccc2[nH]ccc2c1` [Compound 353], the half-maximal effective concentration (EC50) was over 30 µM.

Turning to `O=C(NCCc1cccc(Cl)c1)Nc1ccc2[nH]ccc2c1` [Compound 354], the EC50 was over 30 µM. `O=C(NCCc1ccccc1Cl)Nc1ccc2[nH]ccc2c1` [Compound 355] yielded an EC50 of over 30 µM. Consider `Cc1ccc(CCNC(=O)Nc2ccc3[nH]ccc3c2)cc1C` [Compound 356], for which the EC50 is over 30 µM. For `O=C(Nc1ccc2[nH]ccc2c1)NC1Cc2ccccc2C1` [Compound 357], the EC50 was over 30 µM. With `CC[C@H](NC(=O)Nc1ccc2[nH]ccc2c1)c1ccccc1` [Compound 358], the concentration for a half-maximal effect (EC50) was over 30 µM. Still for that read-out and setting: as for `O=C(Nc1ccc2c(c1)CCC2)Nc1ccc2[nH]ccc2c1` [Compound 359], the figure is over 30 µM; as for `Cc1cc(NC(=O)Nc2ccc3[nH]ccc3c2)ccc1C#N` [Compound 360], over 30 µM; as for `N#Cc1ccc(NC(=O)Nc2ccc3[nH]ccc3c2)cc1` [Compound 361], over 30 µM.

Compound `O=C(Nc1ccc2[nH]ccc2c1)Nc1ccccc1Cl` [Compound 362] showed an EC50 of over 30 µM.

Regarding `CCc1ccccc1NC(=O)Nc1ccc2[nH]ccc2c1` [Compound 363, 1-(2-ethylphenyl)-3-(1H-indol-5-yl)urea], the 50% effective concentration (EC50) was over 30 µM.

For the compound `O=C(Nc1ccc2[nH]ccc2c1)Nc1ccccc1F` [Compound 364], the concentration giving a half-maximal response (EC50) is over 30 µM.

The compound `Cc1ccccc1NC(=O)Nc1ccc2[nH]ccc2c1` [Compound 365] yielded a half-maximal effective concentration (EC50) of over 30 µM. Take `Cn1cc(-c2c[nH]c3ccc(NC(=O)Nc4ccc(C(F)(F)F)cc4)cc23)cn1` [Compound 366]: the half-maximal effective concentration (EC50) was over 30 µM.

The compound `CCCCC1CCC(NC(=O)Nc2ccc3[nH]c(Cl)cc3c2)CC1` (stereo not drawn) [Compound 372] showed a 50% effective concentration (EC50) of over 100 µM. Take `N#Cc1c[nH]c2ccc(NC(=O)Nc3ccc(C(F)(F)F)cc3)cc12` [Compound 373]: the 50% effective concentration (EC50) is over 100 µM.

As to `CCCCC1CCC(NC(=O)Nc2ccc3[nH]c(C)cc3c2)CC1` (stereo not drawn) [Compound 375], the concentration giving a half-maximal response (EC50) is over 100 µM. Same read-out and setting: as for `Cn1ccc2cc(NC(=O)Nc3ccc(C(F)(F)F)cc3)ccc21` [Compound 377], the figure is over 100 µM. Same read-out and setting: with `CCCCC1CCC(NC(=O)Nc2ccc3[nH]ccc3c2)CC1` (stereo not drawn) [Compound 379] the figure was over 5 µM; with `CCc1ccnc(Nc2ccc3cc[nH]c3c2)c1` [Compound 392, N-(4-ethylpyridin-2-yl)-1H-indol-6-amine], over 30 µM; with `CC(C)c1ccnc(Nc2ccc3cc[nH]c3c2)c1` [Compound 393, N-(4-isopropylpyridin-2-yl)-1H-indol-6-amine], over 30 µM.

`c1cnc(Nc2ccc3cc[nH]c3c2)c(C2CC2)c1` [Compound 394, N-(3-cyclopropylpyridin-2-yl)-1H-indol-6-amine]: the EC50 is over 30 µM. On the same count and under the same terms, as for `CC(O)c1ccnc(Nc2ccc3cc[nH]c3c2)c1` (stereo not drawn) [Compound 395, 1-(2-((1H-indol-6-yl)amino)pyridin-4-yl)ethanol], the figure is over 30 µM; as for `c1cc(Nc2ccc3cc[nH]c3c2)nc(N2CCCC2)c1` [Compound 397, N-(6-(pyrrolidin-1-yl)pyridin-2-yl)-1H-indol-6-amine], over 30 µM. As to `CCNc1cccc(Nc2ccc3cc[nH]c3c2)n1` [Compound 398, N2-ethyl-N6-(1H-indol-6-yl)pyridine-2,6-diamine], the EC50 was over 30 µM. `Cc1nc(Nc2ccc3cc[nH]c3c2)ccc1Br` [Compound 399, N-(5-bromo-6-methylpyridin-2-yl)-1H-indol-6-amine]: the EC50 is over 30 µM. The same measure, in the same setting: with `OCc1cccnc1Nc1ccc2cc[nH]c2c1` [Compound 400, (2-((1H-indol-6-yl)amino)pyridin-3-yl)methanol] the figure was over 30 µM; with `c1cc2nccnc2c(Nc2ccc3cc[nH]c3c2)n1` [Compound 404, N-(1H-indol-6-yl)pyrido[3,4-b]pyrazin-5-amine], over 30 µM. The compound `c1cnc2c(Nc3ccc4cc[nH]c4c3)nccc2c1` [Compound 407, N-(1H-indol-6-yl)-1,7-naphthyridin-8-amine] yielded a half-maximal effective concentration (EC50) of over 30 µM.
